Test results: article PMC4564171 (PLoS ONE, 2015)

Assays:
[1] = system: 10 bp pvirB 51-60 FID (DNA, duplex) TAAAATAGTA/TACTATTTTA; test: fluorescent intercalator displacement (ethidium bromide); settings: 0.1 M NaCl; 0.1 M Tris-HCl pH 8.0, room temperature; 7.5 μM ethidium; 1.5 μM DNA; highest tested 100 μM
[2] = system: 60 bp pvirB FID (DNA, duplex) AGAATATTATTCTTTTATCCAATAAAGATAAATTGCATCAATCCAGCTATTAAAATAGTA/TACTATTTTAATAGCTGGATTGATGCAATTTATCTTTATTGGATAAAAGAATAATATTCT; test: as above; settings: 0.1 M NaCl; 0.1 M Tris-HCl pH 8.0, room temperature; 45 μM ethidium; 1.5 μM DNA; highest tested 100 μM
[3] = target: T1, MalE-VirF binding to the pvirB DNA probe (Shigella flexneri, UniProt P0A2T1); test: Fluorescence polarization (FP) assay, inhibition of MalE-VirF binding to the pvirB DNA probe; settings: read-out: % Inhibition at 100 μM
T1 construct: pMALvirF was constructed by cloning the virF gene into the vector, pMAL-c2x; made in house; host or cells: Shigella flexneri BS103 (pBAD202-MALvirF); initial preparations in E. coli KS1000 (pMALvirF)
T1 sequence (P0A2T1 whole entry, looked up): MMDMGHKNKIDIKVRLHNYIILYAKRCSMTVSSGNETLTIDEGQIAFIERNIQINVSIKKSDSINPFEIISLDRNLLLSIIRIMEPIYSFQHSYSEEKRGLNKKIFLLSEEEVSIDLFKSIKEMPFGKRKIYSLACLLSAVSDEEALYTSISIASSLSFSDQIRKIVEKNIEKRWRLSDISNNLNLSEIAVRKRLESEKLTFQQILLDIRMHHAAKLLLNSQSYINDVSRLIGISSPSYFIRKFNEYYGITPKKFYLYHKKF
Experimental: The FP assays were conducted in duplicate in black, half-area, 96-well plates (Corning, Twerksbury, MA). First, 30 μL of 5’-Fluoroscein-pvirB DNA probe working standard was added to appropriate wells of the microplate. The pvirB DNA working standard was in TE/NaCl buffer (see above) supplemented with BSA (0.07 mg/mL) and salmon sperm DNA (0.7 mg/mL). Next, 30 μL of varying concentrations of MalE-VirF in amylose resin elution buffer (see above) was added to appropriate wells of the microplate. The final concentration of pvirB DNA was either 50 nM (for test wells) or none (for blank wells) and the final concentrations of MalE-VirF ranged from 45 μM to 0.12 μM (for test wells) or none (for control wells). For each concentration of MalE-VirF tested, a blank well was also set up that included all reagents except pvirB DNA. The microplate was then incubated for 20 minutes at 37°C and anisotropy was determined using a SpectraMax M5 plate reader (Molecular Devices, Sunnyvale, CA). Data was acquired using an excitation wavelength equal to 490 nm and an emission wavelength equal to 520 nm. To determine anisotropy the following equation was used: Anisotropy=F∥-G^*F⊥/F∥+2^*G^*F⊥^*1000 where: Fǁ = fluorescence intensity parallel to excitation source after blanking, F┴ = fluorescence intensity perpendicular to excitation source after blanking, and G = G-factor (correction for polarization bias of the detection system). After anisotropy was determined, data were plotted using GraphPad Prism (La Jolla, Ca) and fit to the following equation: […] where Y = specific binding, KD = dissociation constant, BMAX = maximum binding, X = MalE-VirF concentration, and b = y-intercept.
The FP protocol listed above was adapted to determine the IC50 of the small molecule hit compounds. Compounds (ranging from 200 μM to 3.1 μM) or DMSO for controls (1% final concentration) were added to the pvirB DNA probe working standard prior to addition to the microplates. For IC50 determination, the MalE-VirF and pvirB DNA probe concentrations were held constant at 20 μM and 50 nM, respectively. Positive controls were established to determine 100% VirF inhibition (no MalE-VirF present, 50 nM pvirB DNA probe) and negative controls were set up to determine no VirF inhibition (1% DMSO, 20 μM MalE-VirF, and 50 nM pvirB DNA probe). Once again blanks were set up to include all reagents, except pvirB DNA probe. All reactions were run in duplicate. Anisotropy was calculated as listed above and data were plotted using GraphPad Prism then fit to the following equation: Y=Bottom+(Top-Bottom)/(1+10^(X-logIC50)) where: Y = anisotropy, X = log of compound concentration (M), Top and Bottom = plateaus in anisotropy units, and LogIC50 = log of the concentration that inhibits 50% of VirF binding. In the presence of the compounds (no VirF), a small increase (~6%) in the DNA anisotropy was observed.
The FP protocol used for IC50 determination was adapted to test a library of small molecule inhibitors of VirF. All steps were identical to the above protocol except compounds were tested at only 100 μM final concentration and positive control samples included 100 μM of compound. Once again blanks were set up to include all reagents, except pvirB DNA probe, and all reactions were run in duplicate. Anisotropy was calculated as listed above, and %inhibition was calculated as follows: %inhibition=rneg-rtest/rneg^*100 where: rneg = average anisotropy for negative controls and rtest = average anisotropy in presence of compound. Note: All rneg and rtest values were normalized to positive control values.

[4] = system: spread of an active S. flexneri infection; settings: at concentrations at or below their IC50s in the reporter assay; cited from earlier work
[5] = target: T2, MalE-VirF binding to the 5'Cy5-pvirB DNA probe (Shigella flexneri, UniProt P0A2T1); test: Electrophoretic mobility shift assay (EMSA) of MalE-VirF binding to pvirB DNA probe; settings: compound 100 μM; MalE-VirF 1 μM; probe 0.25 μM
T2 construct: pMALvirF was constructed by cloning the virF gene into the vector, pMAL-c2x; made in house; host or cells: Shigella flexneri BS103 (pBAD202-MALvirF); initial preparations in E. coli KS1000 (pMALvirF)
T2 sequence (P0A2T1 whole entry, looked up): as above
Experimental: Reactions for the EMSAs were incubated in a 37°C water bath for 15 minutes. Reactions (15 μL total volume) were composed of 6 μL pvirB EMSA DNA probe (0.25 μM), 6 μL of either MalE-VirF (1.0 μM) or native gel loading buffer (Tris-HCl 0.3 M, 50% glycerol, 0.05% bromophenol blue, pH 7.0), 1 μL of salmon sperm DNA (0.7 mg/mL, Invitrogen), 0.5 μL BSA (0.07 mg/mL), and 1.5 μL of either DMSO or compound (100 μM). A 6% native polyacrylamide gel (29:1 acrylamide to bis-acrylamide ratio) was made with 0.25X TBE buffer (22 mM Tris Base, 22 mM boric acid, 0.5 mM EDTA, pH 9.5) for the EMSA. The gel was electrophoresed for 1 hour at 150 V in 0.25X TBE buffer at 4°C before samples were loaded. After the reaction solutions (12 μL) were loaded onto the gel, the gel was electrophoresed for an additional hour at 150 V and 4°C. The gel was then visualized using FluorChem M gel imager (Protein Simple, Santa Clara, CA) with a 607 nm excitation wavelength and a 710 nm emission filter.

MalE-VirF [6] = target: T3, MalE-VirF (Shigella flexneri, UniProt P0A2T1 1-262); test: fluorescence anisotropy; 20 uM MalE-VirF, 50 nM DNA (r = 39 alone, 36 with protein); settings: protein: recombinant; tags: N-terminal MalE (MBP) fusion, not cleaved; label: 5'-fluorescein on top strand; blunt
T3 sequence (P0A2T1 whole entry, the tested form may be a part): as the sequence (P0A2T1 whole entry, looked up) above

MalE-VirF [7] = target: T3, MalE-VirF; test: EMSA; 1 uM MalE-VirF, 0.25 uM DNA; settings: protein: recombinant, tags: N-terminal MalE (MBP) fusion, not cleaved, label: 5'-Cy5 on LUEGO strand (S5), blunt, three strands
MalE-VirF [8] = target: T3, MalE-VirF; test: fluorescence anisotropy; settings: protein: recombinant; tags: N-terminal MalE (MBP) fusion, not cleaved; label: 5'-fluorescein on top strand; blunt

Molecule	inhibition at 100 µM [3] [%]	further results
CNCCOc1nc(-c2ccccc2)nc2c1oc1ccccc12		%fluorescence [1]: 95 ± 1%; %fluorescence [2]: 93 ± 3%
CCN(CC)CCNc1nc(-c2ccccc2)nc2c1oc1ccccc12 [compound 048373]	15 ± 0.4	
CCN(CC)CCOc1nc(C)nc2c1oc1ccccc12 [compound 050908]	18 ± 0.4	
CN1CCN(c2nc(-c3ccccc3)nc3c2oc2ccccc23)CC1 [compound 078044]	42 ± 0.4	
Clc1ccc2nc(COc3ccccc3)[nH]c2c1 [compound 153578]		Inhibition of the spread of an active S. flexneri infection [4]: approximately 75%; Effect on MalE-VirF binding to the pvirB DNA probe (EMSA) [5]: little to no effect on DNA binding
c1ccc(-c2nc(N3CCN(c4ccccc4)CC3)c3oc4ccccc4c3n2)cc1 [compound 568180]	2 ± 0.1	
CCN(CC)CCOc1nc(-c2ccccc2)nc2c1oc1ccccc12 [compound 587109]	43 ± 1	
CCc1nc(OCCN(C)C)c2oc3ccccc3c2n1 [compound 587469]	16 ± 0.4	
CCN(CC)CCCOc1nc(-c2ccccc2)nc2c1oc1ccccc12 [compound 598089]	68	
O=c1[nH]c(-c2ccc(C(F)(F)F)cc2)nc2c1oc1ccccc12 [compound 765345]	1 ± 0.1	
c1ccc(-c2nc(N3CCOCC3)c3oc4ccccc4c3n2)cc1 [compound 9111063]	-5 ± 0.1	
c1ccc(-c2nc(Oc3cccnc3)c3oc4ccccc4c3n2)cc1 [compound 9660232]	17 ± 2	
CCN(CC)c1cccc(Oc2nc(-c3ccccc3)nc3c2oc2ccccc23)c1 [compound 9660235]	5 ± 0.2	
pScram FP probe (dsDNA) DNA 1: TAAGTCCTAAATGGAAATTAAATTACGTAATTCACAAATATAGTATGATCATTTATATCA DNA 2: TGATATAAATGATCATACTATATTTGTGAATTACGTAATTTAATTTCCATTTAGGACTTA		binding result (MalE-VirF [6]): no binding
pScram EMSA probe (dsDNA) DNA 1: GTGCCCTGGTCTGG DNA 2: TAAGTCCTAAATGGAAATTAAATTACGTAATTCACAAATATAGTATGATCATTTATATCA DNA 3: TGATATAAATGATCATACTATATTTGTGAATTACGTAATTTAATTTCCATTTAGGACTTACCAGACCAGGGCAC		binding result (MalE-VirF [7]; LUEGO (S5) and top (S3) abut with a nick on bottom S4 (74 nt)): no binding
pvirB FP probe (dsDNA) DNA 1: AGAATATTATTCTTTTATCCAATAAAGATAAATTGCATCAATCCAGCTATTAAAATAGTA DNA 2: TACTATTTTAATAGCTGGATTGATGCAATTTATCTTTATTGGATAAAAGAATAATATTCT		Kd (MalE-VirF [8]): 2800 ± 1000 nM
pvirB EMSA probe (dsDNA) DNA 1: GTGCCCTGGTCTGG DNA 2: AGAATATTATTCTTTTATCCAATAAAGATAAATTGCATCAATCCAGCTATTAAAATAGTA DNA 3: TACTATTTTAATAGCTGGATTGATGCAATTTATCTTTATTGGATAAAAGAATAATATTCTCCAGACCAGGGCAC		binding result (MalE-VirF [7]; LUEGO (S5) and top (S1) abut with a nick on bottom S2 (74 nt)): binds
